The results in this text go back to US4005213A, “2,5-Substituted-1,3,4-thiadiazoles as fungicides” (Schering Aktiengesellschaft, priority 1968, dated 1977).

The term minimal effective concentration denotes the smallest amount tested that counted as effective.

The test system of test [1] is Pythium ultimum. Nature of the test: Pea test in soil inoculated with Pythium ultimum (Example 2). It counts as in vivo. Also noted: key to Root evaluation (1-4): 4 = white roots, no necroses … 1 = severe necroses, roots rotted. The note with it: for Number of sound peas after 3 wks.: 25 grains seeded; for Root evaluation (1-4): 3 weeks. As to the method: Steamed compost soil was inoculated with mycelium of Pythium ultimum. […] The following table lists the number of germinated sound peas, the weight of the fresh plant, and a root evaluation after a cultivation period of 3 weeks at 22°-25° C.
4 = white roots, without fungus necroses
3 = white roots, slight fungus necroses
2 = brown roots, more intense fungus necroses
1 = severe fungus necroses, roots rotted

For test [2], the system named is Rhizoctonia solani. The test can be described thus: Pea test in soil inoculated with Rhizoctonia solani (Example 3). It counts as in vivo. The note with it: for Number of sound peas after 3 wks.: 25 grains seeded; for Root evaluation (1-4): 3 weeks. The text has this:
Steamed compost soil was inoculated with mycelium of Rhizoctonia solani. After homogeneous mixture of the products with the infested soil, the products were present in the form of 20% powder preparations, the seeding of 25 grains of marrow peas of the variety Miracle of Kelvedon per concentration was effected without waiting period in clay dishes holding 1 liter of soil. The table lists the number of germinated sound peas, the weight of the fresh plant, and a root evaluation after a cultivation period of 3 weeks at 22°-25° C.

For test [3], the system named is Fusarium oxysporum f. callistephi. The test can be described thus: Soil inoculated with Fusarium oxysporum f. callistephi, Callistephus chinensis host plants (Example 5). It counts as in vivo. The note with it: four seedlings per concentration. The source says: Steamed compost soil was inoculated with a spore suspension of Fusarium oxysporum f. callistephi. After homogeneous mixture of the products with the infested soil, the products were present as 20% powder preparations, and after a waiting period of 8 days, there were set out per concentration four seedlings of Callistephus chinensis, master aster "Sun Ray" as host plants.

For test [4], the system named is Pythium ultimum. The test can be described thus: Limit concentration of soil-fungicidal effectiveness, Pythium ultimum infested soil, peas (Example 1). The note with it: Globisporangium ultimum, 20 to 23 days, 22°-25° C., germination at least 90% vs steamed soil. It is filed as in vivo. Here is the method: Limit concentrations of the soil-fungicidal effectiveness at homogeneous mixture of the products with the infested soil. Basic condition in the evaluation are a sound root formation without fungus necroses and germination of the seed of at least 90% compared with the result obtained in steamed soil. Per concentration there were seeded 25 grains of peas of the variety "Miracle of Kelvedon" (marrow pea) without a waiting period. the cultivation time in the tests was 20 to 23 days at a temperature of 22°-25° C. Four commercial products were included in the test series.
Pythium ultimum: Steamed compost soil was inoculated with mycelium of Pythium ultimum

The next test deals with Aspergillus niger. Nature of the test: Agar test, Aspergillus niger (Example 7). It counts as cell-based. The note with it: 10 ppm in malt extract agar, 5 days at 22° C.; control 100. As to the method:
(§1) The fungicidal action of the agents according to the invention was tested in artificial nutrient media against plant-pathogenic fungi in Petri dishes (agar test). The procedure was to sterilize the medium consisting of 2% malt extract and 1.5% agar-agar powder. Before the solidification of the medium, the active substances were added to it, mixing thoroughly, so that the medium received 10 parts of active substance per million (ppm). After the solidification of the medium, the latter was inoculated with a platinum dropper which contained 100 spores each of the fungi to be tested, and after 5 days at 22° C., an evaluation was made by measuring the diameter of the colonies in mm.

In the next test the test system is Stemphylium ilicis. Nature of the test: Agar test, Stemphylium ilicis (Example 7). It is filed as cell-based. The note with it: 10 ppm in malt extract agar, 5 days at 22° C.; control 100. Here is the method:
as §1

Test [5] concerns Pythium ultimum. The test can be described thus: Fungicidal effect in the vapor phase, Pythium ultimum (Example 11). It counts as cell-based. The note with it: even at 1 mg active ingredient per liter; 3 days, 22° C.; 10% powder. Here is the method: (§2) Nutrient medium inoculated with nycelium of Pythium ultimum or Rhizoctonia solani in open Petri dishes was placed in glass vessels 12 cm tall. First the quantity of product as a 10% powder preparation had been placed on the bottom of the glasses. After a reaction time of 3 days (Pythium) and 5 days (Rhizoctonia) at a temperature of 22° C. in the covered glass vessel, the mycelium growth was evaluated.

Test [6] has as its system Rhizoctonia solani. Nature of the test: Fungicidal effect in the vapor phase, Rhizoctonia solani (Example 11). It is filed as cell-based. The note with it: even at 1 mg active ingredient per liter; 5 days, 22° C.; 10% powder. Here is the method:
as §2

A further test has as its system Meloidogyne incognita. Nature of the test: Nematocidal action against root gall nematodes, cucumber (Example 8). It is filed as in vivo. The note with it: reduction of attack, 30 days. As to the method:
The products as 20% powder preparations were homogeneously admixed with a compost soil heavily infested by root gall nematodes. Without a waiting period, 20 cucumber seeds per concentration were seeded. After a cultivation time of 30 days at a temperature of 23°-25° C., the nematocidal action was evaluated by counting the root galls formed in the waterbath. The following table states the reduction of attack in percent. In the control, an average of 90 root galls per seedling had formed.

Where [7] appears, read: 200 mg active ingr. per liter of soil.
Where [8] appears, read: 10 mg active ingr. per liter of soil.
Where [9] appears, read: 20 mg active ingr. per liter of soil.
The mark [10] stands for this setting: 30 mg active ingr. per liter of soil.
Setting [11] is: 50 mg active ingr. per liter of soil.
Setting [12] is: 100 mg active ingr. per liter of soil.
Setting [13] is: 40 mg active substance per liter of soil.
Setting [14] is: 60 mg active substance per liter of soil.

Molecules are shown by their SMILES.

`COc1cc(Cl)c(OC)cc1Cl` [1,4-dichloro-2,5-dimethoxybenzene, reference compound]: the “Number of sound peas after 3 wks.” value worked out at 2 with Pythium ultimum [1] (setting [7]); 0 with Rhizoctonia solani [2] (setting [8]); 0 with Rhizoctonia solani [2] (setting [9]); 21 in the test with Rhizoctonia solani [2] (setting [10]); 22 in the test on Rhizoctonia solani [2] (40 mg active ingr. per liter of soil). Moreover, the “No. of attacked plants after 3 weeks” value in test [3] (setting [11]), in test [3] (setting [12]) and in test [3] (setting [7]) was 4 throughout.
For `CS(=O)(=O)c1nnc(C(F)(F)F)s1` [Compound 1, 2-trifluoromethyl-5-methylsulfonyl-1,3,4-thiadiazole], in the test with Pythium ultimum [4], the minimal effective concentration worked out at 10 µg/mL. The “Root evaluation (1-4)” value in the test with Pythium ultimum [1] (setting [8]), with Pythium ultimum [1] (setting [9]) and with Pythium ultimum [1] (setting [10]) was 4 in each case. Moreover, the “Number of sound peas after 3 wks.” value with Pythium ultimum [1] (setting [9]) worked out at 22. Besides, in the test with Aspergillus niger, the “diameter of the colonies, Aspergillus niger” value (shortened to “diameter … Aspergillus niger”) is reported as 0 mm. Moreover, the “diameter of the colonies, Stemphylium ilicis” value (“diameter … Stemphylium ilicis” below) in the test with Stemphylium ilicis was 0 mm. Besides, in the test on Pythium ultimum [5], the “mycelium growth, Pythium ultimum, vapor phase” value is “no mycelium growth”. The “mycelium growth, Rhizoctonia solani, vapor phase” value in the test with Rhizoctonia solani [6] is listed as “no mycelium growth”.
For the molecule `CC[S+]([O-])c1nnc(C(Cl)Cl)s1` (centres unmarked) [Compound 4, 2-dichloromethyl-5-ethylsulfinyl 1,3,4-thiadiazole], the minimal effective concentration in the test with Pythium ultimum [4] worked out at 100 µg/mL. Further, the “Nematocidal action in % (Meloidogyne incognita)” value (shortened to “Nematocidal action in %”) in the test with Meloidogyne incognita (setting [13]) was 96%; in the test with Meloidogyne incognita (setting [14]) it was 99%.
In turn, `CCC[S+]([O-])c1nnc(C(Cl)Cl)s1` (centres unmarked) [Compound 5, 2-dichloromethyl-5-propylsulfinyl-1,3,4-thiadiazole] had a minimal effective concentration in the test with Pythium ultimum [4] of 100 µg/mL. The “Nematocidal action in %” value in the test with Meloidogyne incognita (setting [13]) stood at 90%; in the test with Meloidogyne incognita (setting [14]), 98%.
In turn, `C[S+]([O-])c1nnc(C(Cl)(Cl)Cl)s1` (centres unmarked) [Compound 8, 2-trichloromethyl-5-methylsulfinyl-1,3,4-thiadiazole] returned a minimal effective concentration in the test with Pythium ultimum [4] of 20 µg/mL. The “Root evaluation (1-4)” value with Pythium ultimum [1] (setting [8]) was found to be 1; in the test on Pythium ultimum [1] (setting [9]) it was 4; with Pythium ultimum [1] (setting [10]), 4; with Rhizoctonia solani [2] (setting [8]), 4; in the test with Rhizoctonia solani [2] (setting [9]), 4; in the test with Rhizoctonia solani [2] (setting [10]) it was 4. In addition, the “diameter … Aspergillus niger” value with Aspergillus niger stood at 0 mm. For the same molecule, the “diameter … Stemphylium ilicis” value in the test on Stemphylium ilicis worked out at 0 mm.
`CC[S+]([O-])c1nnc(C(Cl)(Cl)Cl)s1` (centres unmarked) [Compound 9, 2-trichloromethyl-5-ethylsulfinyl-1,3,4-thiadiazole] showed a minimal effective concentration in the test on Pythium ultimum [4] of 200 µg/mL. Besides, the “Root evaluation (1-4)” value in the test on Rhizoctonia solani [2] (setting [8]), with Rhizoctonia solani [2] (setting [9]) and in the test with Rhizoctonia solani [2] (setting [10]) was 4 each time. The “diameter … Aspergillus niger” value in the test on Aspergillus niger came to 0 mm. Besides, the “diameter … Stemphylium ilicis” value in the test on Stemphylium ilicis turned out to be 0 mm.
As for `CCS(=O)(=O)c1nnc(C(Cl)Cl)s1` [Compound 18, 2-dichloromethyl-5-ethylsulfonyl-1,3,4-thiadiazole], in the test on Pythium ultimum [4], the minimal effective concentration is above 200 µg/mL. Also, the “diameter … Aspergillus niger” value in the test on Aspergillus niger stood at 0 mm. Besides, the “diameter … Stemphylium ilicis” value with Stemphylium ilicis turned out to be 0 mm. The figures for the “Nematocidal action in %” value in the test on Meloidogyne incognita (setting [13]) and in the test with Meloidogyne incognita (setting [14]) were 61% and 90%, respectively.
In the test on Pythium ultimum [4], `CCCS(=O)(=O)c1nnc(C(Cl)Cl)s1` [Compound 19, 2-dichloromethyl-5-propylsulfonyl-1,3,4-thiadiazole] had a minimal effective concentration of 100 µg/mL. For the same molecule, the “diameter … Aspergillus niger” value with Aspergillus niger was 0 mm. In addition, the “diameter … Stemphylium ilicis” value with Stemphylium ilicis is 0 mm. Also, the “Nematocidal action in %” value with Meloidogyne incognita (setting [13]) is on record as 72%; with Meloidogyne incognita (setting [14]) it was 82%.
Molecule `CCCS(=O)(=O)c1nnc(C(Cl)(Cl)Cl)s1` [Compound 23, 2-trichloromethyl-5-propylsulfonyl-1,3,4-thiadiazole] gave a minimal effective concentration in the test with Pythium ultimum [4] of 150 µg/mL. In addition, the “Root evaluation (1-4)” value was 1 with Rhizoctonia solani [2] (setting [8]), 3 with Rhizoctonia solani [2] (setting [9]) and 4 in the test on Rhizoctonia solani [2] (setting [10]). Further, the “diameter … Aspergillus niger” value in the test with Aspergillus niger came to 0 mm. In addition, the “diameter … Stemphylium ilicis” value in the test with Stemphylium ilicis was 0 mm.
With `CCCCCCS(=O)(=O)c1nnc(C(Cl)(Cl)Cl)s1` [Compound 27, 2-trichloromethyl-5-hexylsulfonyl-1,3,4-thiadiazole], the minimal effective concentration with Pythium ultimum [4] is above 200 µg/mL. Also, in the test on Aspergillus niger, the “diameter … Aspergillus niger” value came to 0 mm. Further, the “diameter … Stemphylium ilicis” value in the test on Stemphylium ilicis turned out to be 0 mm.
`CCCCCCCS(=O)(=O)c1nnc(C(Cl)(Cl)Cl)s1` [Compound 28, 2-trichloromethyl-5-heptysulfonyl-1,3,4-thiadiazole] displayed a minimal effective concentration with Pythium ultimum [4] above 200 µg/mL. Moreover, the “diameter … Aspergillus niger” value in the test on Aspergillus niger is given as 0 mm. The “diameter … Stemphylium ilicis” value in the test on Stemphylium ilicis is 0 mm.
`CCCCCCCCS(=O)(=O)c1nnc(C(Cl)(Cl)Cl)s1` [Compound 29, 2-trichloromethyl-5-octylsulfonyl-1,3,4-thiadiazole] displayed a minimal effective concentration with Pythium ultimum [4] above 200 µg/mL. Moreover, the “diameter … Aspergillus niger” value in the test on Aspergillus niger was determined as 19 mm. Also, the “diameter … Stemphylium ilicis” value in the test with Stemphylium ilicis came to 0 mm.
The like results for `CS(=O)(=O)c1nnc(C(Br)Br)s1` [Compound 32, 2-dibromomethyl-5-methylsulfonyl-1,3,4-thiadiazole] were, in that order, 20 µg/mL, 0 mm and 0 mm.
In the test on Pythium ultimum [4], `C[S+]([O-])c1nnc(C(F)(F)F)s1` (centres unmarked) [Compound 35, 2-trifluoromethyl-5-methylsulfinyl-1,3,4-thiadiazole] showed a minimal effective concentration of 10 µg/mL. The “mycelium growth, Pythium ultimum, vapor phase” value in the test on Pythium ultimum [5] is given as “no mycelium growth”. Moreover, the “mycelium growth, Rhizoctonia solani, vapor phase” value in the test on Rhizoctonia solani [6] was “no mycelium growth”.
In the case of `CC[S+]([O-])c1nnc(C(F)(F)F)s1` (centres unmarked) [Compound 36, 2-trifluoromethyl-5-ethylsulfinyl-1,3,4-thiadiazole], in the test on Pythium ultimum [4], the minimal effective concentration came out at 10 µg/mL. Moreover, the “mycelium growth, Pythium ultimum, vapor phase” value in the test with Pythium ultimum [5] is on record as “no mycelium growth”. The “mycelium growth, Rhizoctonia solani, vapor phase” value with Rhizoctonia solani [6] was “no mycelium growth”.
In the test with Pythium ultimum [4], `CCS(=O)(=O)c1nnc(C(F)(F)F)s1` [Compound 40, 2-trifluoromethyl-5-ethylsulfonyl-1,3,4-thiadiazole] came in with a minimal effective concentration of 10 µg/mL. In the test with Pythium ultimum [5], the “mycelium growth, Pythium ultimum, vapor phase” value is listed as “no mycelium growth”. The “mycelium growth, Rhizoctonia solani, vapor phase” value with Rhizoctonia solani [6] is on record as “no mycelium growth”.
For `O=C1C2CC=CCC2C(=O)N1SC(Cl)(Cl)Cl` (centres unmarked) [N-(trichloromethylthio)-cyclohex-4-ene-1,2-dicarboximide], the “Root evaluation (1-4)” value in the test on Pythium ultimum [1] (setting [7]) worked out at 1. The “Number of sound peas after 3 wks.” value in the test on Pythium ultimum [1] (setting [7]) was determined as 13. The “No. of attacked plants after 3 weeks” value in test [3] (setting [11]), in test [3] (setting [12]) and in [3] (setting [7]) was 4 in each case.
